One data set relates to E. faecium NCTC 7171. Kind of data set: Minimal-bactericidal concentration (MBC) determination. The class given is cell-based, Enterococcus faecium. Here is the method:
The MBC of compound 75b was determined using S. aureus ATCC 29213, S. aureus […], and E. faecium NCTC 7171.
The MBC of indolyl antibiotic 75b was determined by incubation of 1.5×10^5 cells of S. aureus ATCC29213, S. aureus ATCC 27660, and E. faecium NCTC7171 at MIC, 2×MIC, and 4×MIC. Aliquots of 10 μL (corresponding to 1.5×10^4 cells) were plated on agar plates, incubated for 48 h, and colonies were counted in the presence and absence of […].

The next data set can be described thus: Full PK study. The class given is in vivo, mouse. On the procedure:
A full PK study was conducted with indole 75b after iv and oral (po) administration. This compound had the lowest in vitro toxicity and the highest efficacy in the mouse peritonitis infection model.
Female ICR mice (6-8 weeks old, ˜20-g body weight) were used for the PK and peritonitis studies. Animals were purchased from Harlan Laboratories, Inc. (Indianapolis, Ind., USA) and given Teklad 2019 Extruded Rodent Diet and water ad libitum. Mice were maintained in polycarbonate shoebox cages with ¼″ corncob (The Andersons Inc., Maumee, Ohio) and Alpha-dri (Sheperd Specialty Papers, Inc., Richland, Mich.) bedding under 12-h light/12-h dark cycle at 72±2° F.
Antibiotic 75b was dissolved in 10% DMSO/25% Tween-80/65% water at a concentration of 5 mg/mL. Mice (n=3 per time point per route of administration) were administered 100 μL of 75b (equivalent to 20 mg/kg) iv. A separate group of mice was given 100 μL of 75b (equivalent to 20 mg/kg) orally (po). Terminal blood was collected in heparin by cardiac puncture at 2, 5, 10, 20, and 40 min, and at 1, 2, 3, 4, 8, and 24 h after iv administration and at 0.5, 1, 2, 3, 4, 6, 9, 24, and 36 h after po administration. Blood was centrifuged at 1200 g for 10 min to obtain plasma. Plasma samples were stored at −80° C. until analysis.
Plasma ([…], aliquot) was mixed with 100 μL of acetonitrile containing internal standard (final concentration 8 μg/mL). After centrifugation at 10000 g for 10 min, the supernatant was analyzed by ultraperformance liquid chromatography (UPLC) with UV detection at 285 nm. A Waters Acquity UPLC System (Waters Corporation, Milford, Mass., USA), consisting of a binary pump, an autosampler, a column heater, and a photodiode array detector was used. An Acquity UPLC C18 1.7 μm, 2.1 mm i.d.×50 mm column was used. Elution was at 0.5 mL/min with 70% A/30% B for 2 min, followed by a 10-min linear gradient to 10% A/90% B, then 70% A/30% B for 2 min, where A=0.1% formic acid/water and B=0.1% formic acid/acetonitrile. Monitoring was by UV detection at 285 nm. Calibration curves for each compound were prepared in control plasma containing internal standard. The concentrations in the PK samples were obtained using peak area ratio to the internal standard and the calibration curve regression analysis parameters. The methods were linear from 0.01 to 100 μg/mL; coefficients of determination R^2 range from 0.98 to 0.99.
The area under the curve (AUC), clearance (CL), volume of distribution (Vd), and terminal half-life were calculated using Phoenix WinNonlin 6.3 (Certara LP, St Louis, Mo., USA) noncompartmental analysis using uniform weighing. Half-lives were estimated from the linear portion of the initial or terminal phase of the concentration-time data by linear regression, where the slope of the line was the rate constant k and t1/2=ln 2/k.

Usually Vd stands for a proportionality between amount in the body and measured concentration, not a real space. The term Cmax denotes the maximum level reached in the sampled fluid or tissue. For orientation: Tmax means the time from dosing to the highest level. With `FC(F)(F)c1ccc(Oc2ccc(-c3noc(-c4ccc5[nH]ccc5c4)n3)cc2)cc1` [Compound 75b, 5-(1H-Indol-5-yl)-3-(4-(4-(trifluoromethyl)phenoxy)phenyl)-1,2,4-oxadiazole], the “MBC, fold above the MIC” value in the data set on E. faecium NCTC 7171 was found to be 2 fold. Moreover, in the data set “Full PK study” (20 mg/kg iv, mice), the AUC0-24 h was found to be 3140 µg·min/mL, the “AUC0-∞” value amounted to 3520 µg·min/mL, the CL came out at 5.68 mL/min/kg and the Vd is on record as 4.73 L/kg. Further, in “Full PK study” (20 mg/kg iv, mice), the t1/2α result was “t1/2α = 0.54 min” and the “t1/2β (terminal half-life)” value worked out at 9.6 h. For the same compound, in “Full PK study” (20 mg/kg po vs iv, mice), the “F (oral bioavailability)” value was determined as 97%. Also, in “Full PK study” (20 mg/kg po, mice), the AUC0-24 h worked out at 3060 µg·min/mL, the “AUC0-∞” value came out at 4060 µg·min/mL, the Cmax was 2.34 µg/mL and the Tmax came to 6 h. In the data set “Full PK study” (20 mg/kg po, mice), the t1/2dist entry is given as “t1/2dist = 15.9 h” and the “t1/2elim (terminal half-life)” value worked out at 18.6 h. Moreover, in “Full PK study” (75b vs compound 1), the “clearance, fold lower than 1” value is reported as 3 fold and the “volume of distribution, fold higher than 1” value is 13 fold.

Values taken from patent publication US10662164B2, “Non-beta lactam antibiotics” (University of Notre Dame du Lac, priority 2014, dated 2020).
